Laboratory results published in publication PMC8362001 (Angewandte Chemie (International Ed. in English), 2021).

Assays:
[1] = Hydrolysis of the P−N bond under acidic conditions; type: physicochemical; conditions: slightly acidic conditions (pH≤3)
eGFP (C70M S147C) = eGFP (C70M S147C) (Aequorea victoria, UniProt P42212, C70M/F64L/H231L/S147C/S65T); assay: Second-order rate constant of the reaction with eGFP, intact protein MS; conditions: one equivalent of eGFP (C70M S147C), Tris buffer pH 8.3, 90 μM, room temperature, eGFP C70M as internal standard, triplicate

Row | SMILES | Hydrolytic stability of the P−N bond [1] | second‐order rate constant (eGFP (C70M S147C))
1 | C#CP(=O)(C#C)N(CC)CC [II] | rapid hydrolysis of the P−N bond | –
2 | C#CCCOP(=O)(C#C)C#C [compound 2] | – | approximately 0.47 M^−1 s^−1
